Patent US7101878B1 (Agouron Pharmaceuticals, Inc., priority 1998, dated 2006)

Assays:
[1] = biological target: T1, rat GnRH receptor (Rattus norvegicus, UniProt P30969); assay: Total inositol phosphates measurement, GGH3 cells; assay type: cell-based; conditions: PI (inositol phosphates)
T1 sequence (P30969 1-327): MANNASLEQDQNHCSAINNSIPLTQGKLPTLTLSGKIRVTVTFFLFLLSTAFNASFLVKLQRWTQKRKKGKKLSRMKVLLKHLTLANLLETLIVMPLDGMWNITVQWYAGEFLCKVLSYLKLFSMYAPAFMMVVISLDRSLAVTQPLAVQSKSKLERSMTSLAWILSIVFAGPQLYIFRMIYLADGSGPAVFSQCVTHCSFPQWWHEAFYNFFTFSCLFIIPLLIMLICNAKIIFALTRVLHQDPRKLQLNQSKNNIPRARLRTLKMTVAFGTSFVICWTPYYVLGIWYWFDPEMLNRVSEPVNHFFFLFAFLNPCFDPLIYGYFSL
Method: In another test, accumulation of total inositol phosphates may be measured by formic acid extraction from cells, followed by separation of the phosphates on Dowex columns. Cells are split using trypsin into two 12-well plates and pre-labeled with ^3H-myoinositol ([…]-2 mCi per mL) for 16-18 hours in inositol-free medium. The medium is then aspirated and the cells rinsed with either 1×HBSS, 20 mM HEPES (pH 7.5), or serum-free DMEM, 1×HBSS, 20 mM HEPES (pH 7.5) containing agonist, and 20 mM LiCl is then added and the cells are incubated for the desired time. The medium is aspirated and the reaction stopped by addition of ice-cold 10 mM formic acid, which also serves to extract cellular lipids. […] The columns are then washed with 10 mL of […] sodium formate and 5 mM borax, and total inositol phosphates are eluted with 4.5 mL 1M ammonium formate, 0.1M formic acid.
These cells have been extensively characterized previously (Kaiser et al., 1997). These cells were grown in low glucose Dulbecco's modified Eagle's medium (DMEM) containing: 100U/mL penicillin/streptomycin, 0.6 g/L G418 and 10% beat-inactivated fetal bovine serum
This cell line was provided by Dr. Stuart Sealfon, Mount Sinai Medical School New York, N.Y. These cells were grown in DMEM supplemented with 0.2 g/L G418 100 U/ml penicillin/streptomycin and 10% FBS. […]

[2] = biological target: LTD4 (Homo sapiens, UniProt Q9Y271); assay: biochemical
[3] = biological target: PAF (Homo sapiens, UniProt P25105); assay: biochemical
[4] = biological target: AT1 Angiotensin (Homo sapiens, UniProt P30556); assay: biochemical
[5] = biological target: Bradykinin 2 (Homo sapiens, UniProt P30411); assay: biochemical
[6] = biological target: CCKA (Homo sapiens, UniProt P32238); assay: biochemical
[7] = biological target: NK1 (Homo sapiens, UniProt P25103); assay: biochemical
[8] = biological target: H2 Histamine (Homo sapiens, UniProt P25021); assay: Selectivity: H2 Histamine
[9] = biological target: H3 Histamine (Homo sapiens, UniProt Q9Y5N1); assay: Selectivity: H3 Histamine
[10] = biological target: N-type Ca2+ Channel (Homo sapiens, UniProt Q00975); assay: Selectivity: N-type Ca2+ Channel
Sequence of N-type Ca2+ Channel (Q00975 whole entry): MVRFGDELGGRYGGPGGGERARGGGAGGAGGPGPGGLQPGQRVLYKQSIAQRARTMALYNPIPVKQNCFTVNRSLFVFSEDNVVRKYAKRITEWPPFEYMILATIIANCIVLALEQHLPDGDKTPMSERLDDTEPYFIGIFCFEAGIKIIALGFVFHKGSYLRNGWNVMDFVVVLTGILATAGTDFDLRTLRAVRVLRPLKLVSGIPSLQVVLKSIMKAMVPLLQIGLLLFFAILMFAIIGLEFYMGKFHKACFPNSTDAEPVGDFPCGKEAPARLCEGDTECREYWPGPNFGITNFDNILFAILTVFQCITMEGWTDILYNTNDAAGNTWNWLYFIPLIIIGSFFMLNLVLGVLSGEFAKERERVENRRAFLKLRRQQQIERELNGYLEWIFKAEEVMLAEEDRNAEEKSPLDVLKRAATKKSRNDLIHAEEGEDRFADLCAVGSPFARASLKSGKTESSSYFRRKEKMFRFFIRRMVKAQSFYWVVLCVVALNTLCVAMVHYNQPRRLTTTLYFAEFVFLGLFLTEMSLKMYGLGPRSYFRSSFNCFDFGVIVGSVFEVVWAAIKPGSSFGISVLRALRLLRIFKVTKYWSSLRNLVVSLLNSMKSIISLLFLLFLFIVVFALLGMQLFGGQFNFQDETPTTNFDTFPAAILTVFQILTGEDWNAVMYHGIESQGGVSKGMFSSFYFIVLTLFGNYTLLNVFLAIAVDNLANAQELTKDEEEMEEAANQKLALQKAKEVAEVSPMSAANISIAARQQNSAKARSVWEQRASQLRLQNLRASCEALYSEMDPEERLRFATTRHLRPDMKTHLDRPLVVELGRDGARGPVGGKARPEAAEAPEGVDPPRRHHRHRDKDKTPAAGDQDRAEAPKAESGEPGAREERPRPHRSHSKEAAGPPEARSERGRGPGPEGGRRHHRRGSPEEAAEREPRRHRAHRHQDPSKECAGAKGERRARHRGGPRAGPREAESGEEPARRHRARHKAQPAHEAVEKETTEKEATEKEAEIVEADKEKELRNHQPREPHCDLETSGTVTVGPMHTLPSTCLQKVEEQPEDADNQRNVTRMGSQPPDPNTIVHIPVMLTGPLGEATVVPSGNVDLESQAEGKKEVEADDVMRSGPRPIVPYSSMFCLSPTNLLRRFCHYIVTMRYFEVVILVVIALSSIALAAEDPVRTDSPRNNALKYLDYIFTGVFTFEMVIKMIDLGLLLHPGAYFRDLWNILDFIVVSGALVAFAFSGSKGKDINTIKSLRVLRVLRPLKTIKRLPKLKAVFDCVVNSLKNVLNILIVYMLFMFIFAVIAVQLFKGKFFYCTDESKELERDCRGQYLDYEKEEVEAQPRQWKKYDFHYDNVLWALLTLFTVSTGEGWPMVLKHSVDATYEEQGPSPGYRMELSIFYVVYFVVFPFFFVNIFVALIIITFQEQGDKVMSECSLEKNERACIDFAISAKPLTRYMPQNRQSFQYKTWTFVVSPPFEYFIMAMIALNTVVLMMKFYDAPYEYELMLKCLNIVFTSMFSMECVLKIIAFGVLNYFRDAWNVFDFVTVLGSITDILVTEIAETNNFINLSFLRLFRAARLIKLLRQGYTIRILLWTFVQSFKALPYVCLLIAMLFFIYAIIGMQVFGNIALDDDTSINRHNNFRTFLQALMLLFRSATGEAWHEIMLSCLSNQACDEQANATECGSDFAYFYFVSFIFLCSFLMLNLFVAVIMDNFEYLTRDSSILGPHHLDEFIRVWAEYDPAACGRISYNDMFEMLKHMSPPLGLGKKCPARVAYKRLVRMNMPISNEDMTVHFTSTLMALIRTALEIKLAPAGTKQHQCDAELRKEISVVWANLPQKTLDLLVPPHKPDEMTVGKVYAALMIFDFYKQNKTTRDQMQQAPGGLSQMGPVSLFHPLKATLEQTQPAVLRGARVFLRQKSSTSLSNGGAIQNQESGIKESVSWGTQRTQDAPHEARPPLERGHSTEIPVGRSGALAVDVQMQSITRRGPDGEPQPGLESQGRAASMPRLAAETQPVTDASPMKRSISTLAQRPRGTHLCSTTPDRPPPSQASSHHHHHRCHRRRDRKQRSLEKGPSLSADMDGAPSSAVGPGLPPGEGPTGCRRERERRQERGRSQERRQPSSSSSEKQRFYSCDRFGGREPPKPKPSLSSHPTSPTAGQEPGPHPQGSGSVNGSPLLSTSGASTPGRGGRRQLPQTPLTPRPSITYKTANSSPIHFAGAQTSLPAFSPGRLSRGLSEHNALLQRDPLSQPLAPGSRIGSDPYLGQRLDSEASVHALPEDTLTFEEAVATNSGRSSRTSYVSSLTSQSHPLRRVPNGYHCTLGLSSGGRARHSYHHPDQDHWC

Sequence of PAF (P25105 whole entry): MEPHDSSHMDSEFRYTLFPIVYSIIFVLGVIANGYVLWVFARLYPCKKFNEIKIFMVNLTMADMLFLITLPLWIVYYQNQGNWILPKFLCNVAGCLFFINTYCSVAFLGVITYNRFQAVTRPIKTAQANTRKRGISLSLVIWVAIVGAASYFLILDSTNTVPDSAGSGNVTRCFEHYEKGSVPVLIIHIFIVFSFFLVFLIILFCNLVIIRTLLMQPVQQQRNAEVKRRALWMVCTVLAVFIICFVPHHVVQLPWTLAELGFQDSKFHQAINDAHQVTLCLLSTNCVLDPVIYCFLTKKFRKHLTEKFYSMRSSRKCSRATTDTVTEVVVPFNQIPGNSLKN
Sequence of AT1 Angiotensin (P30556 whole entry): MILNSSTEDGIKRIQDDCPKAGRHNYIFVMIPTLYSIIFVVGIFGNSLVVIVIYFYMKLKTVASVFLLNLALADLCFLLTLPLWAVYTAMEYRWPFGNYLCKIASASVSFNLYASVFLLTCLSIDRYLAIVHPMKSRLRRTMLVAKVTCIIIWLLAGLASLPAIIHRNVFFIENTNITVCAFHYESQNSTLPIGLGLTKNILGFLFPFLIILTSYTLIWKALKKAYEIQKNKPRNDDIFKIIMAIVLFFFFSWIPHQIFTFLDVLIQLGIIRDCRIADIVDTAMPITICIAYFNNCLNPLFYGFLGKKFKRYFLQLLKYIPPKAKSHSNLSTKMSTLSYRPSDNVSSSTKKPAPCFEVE
Sequence of CCKA (P32238 whole entry): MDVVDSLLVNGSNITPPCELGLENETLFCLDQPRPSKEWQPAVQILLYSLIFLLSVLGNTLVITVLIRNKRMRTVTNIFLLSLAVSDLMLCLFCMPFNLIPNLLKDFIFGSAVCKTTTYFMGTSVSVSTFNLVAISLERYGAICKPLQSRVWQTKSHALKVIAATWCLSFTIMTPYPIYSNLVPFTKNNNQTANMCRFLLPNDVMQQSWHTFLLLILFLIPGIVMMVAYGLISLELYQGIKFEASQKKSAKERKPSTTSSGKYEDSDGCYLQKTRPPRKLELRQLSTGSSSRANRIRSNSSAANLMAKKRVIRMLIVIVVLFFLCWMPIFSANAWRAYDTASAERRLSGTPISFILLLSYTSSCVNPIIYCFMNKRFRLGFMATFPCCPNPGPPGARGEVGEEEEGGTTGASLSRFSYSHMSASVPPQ
Sequence of H3 Histamine (Q9Y5N1 whole entry): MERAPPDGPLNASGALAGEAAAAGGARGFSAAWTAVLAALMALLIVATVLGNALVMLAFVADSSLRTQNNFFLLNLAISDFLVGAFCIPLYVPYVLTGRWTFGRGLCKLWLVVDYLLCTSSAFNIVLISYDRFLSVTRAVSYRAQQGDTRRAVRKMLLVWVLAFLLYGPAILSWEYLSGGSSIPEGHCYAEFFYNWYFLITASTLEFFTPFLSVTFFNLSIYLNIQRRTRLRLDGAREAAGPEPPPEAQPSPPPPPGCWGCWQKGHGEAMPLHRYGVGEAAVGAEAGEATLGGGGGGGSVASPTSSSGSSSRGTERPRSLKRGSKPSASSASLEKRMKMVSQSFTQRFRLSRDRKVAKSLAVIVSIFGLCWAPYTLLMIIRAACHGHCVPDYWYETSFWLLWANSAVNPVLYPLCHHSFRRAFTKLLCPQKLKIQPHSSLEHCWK
Sequence of NK1 (P25103 whole entry): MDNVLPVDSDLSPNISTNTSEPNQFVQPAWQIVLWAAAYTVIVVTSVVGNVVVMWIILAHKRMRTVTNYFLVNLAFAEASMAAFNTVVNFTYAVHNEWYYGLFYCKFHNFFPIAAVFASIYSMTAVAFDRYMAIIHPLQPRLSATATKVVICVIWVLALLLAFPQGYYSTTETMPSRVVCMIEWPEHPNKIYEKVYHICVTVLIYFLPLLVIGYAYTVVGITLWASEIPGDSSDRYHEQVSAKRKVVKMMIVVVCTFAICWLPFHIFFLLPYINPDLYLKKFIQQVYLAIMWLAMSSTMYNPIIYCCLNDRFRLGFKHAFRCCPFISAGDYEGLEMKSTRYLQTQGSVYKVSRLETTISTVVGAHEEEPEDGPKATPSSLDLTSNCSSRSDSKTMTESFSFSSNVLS
Sequence of LTD4 (Q9Y271 whole entry): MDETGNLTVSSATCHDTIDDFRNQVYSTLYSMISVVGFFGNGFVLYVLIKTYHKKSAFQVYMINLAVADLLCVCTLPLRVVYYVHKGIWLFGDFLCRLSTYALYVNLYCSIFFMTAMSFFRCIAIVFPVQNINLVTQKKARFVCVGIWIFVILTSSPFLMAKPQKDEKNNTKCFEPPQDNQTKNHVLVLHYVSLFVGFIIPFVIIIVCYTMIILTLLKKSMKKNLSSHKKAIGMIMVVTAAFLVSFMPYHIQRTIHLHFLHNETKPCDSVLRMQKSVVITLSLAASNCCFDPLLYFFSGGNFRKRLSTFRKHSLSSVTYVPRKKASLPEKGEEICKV
Sequence of H2 Histamine (P25021 whole entry): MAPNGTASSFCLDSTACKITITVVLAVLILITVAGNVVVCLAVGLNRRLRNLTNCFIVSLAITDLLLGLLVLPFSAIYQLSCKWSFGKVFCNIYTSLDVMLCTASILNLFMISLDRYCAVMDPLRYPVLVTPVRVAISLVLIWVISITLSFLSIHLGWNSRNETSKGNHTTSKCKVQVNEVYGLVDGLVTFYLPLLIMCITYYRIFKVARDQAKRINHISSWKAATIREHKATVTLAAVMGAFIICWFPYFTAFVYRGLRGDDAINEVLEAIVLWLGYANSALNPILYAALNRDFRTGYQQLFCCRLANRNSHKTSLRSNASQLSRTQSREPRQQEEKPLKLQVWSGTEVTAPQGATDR

Row | SMILES | Kb [1] [nM] | Ki [2] [nM] | Ki [3] [nM] | Ki [4] [nM] | Ki [5] [nM] | Ki [6] [nM] | Ki [7] [nM] | Ki [8] [nM] | Ki [9] [nM] | Ki [10] [nM]
1 | Cc1cc2c(cc1Cc1ccc(C(=O)NCc3cccc(CNc4ccnc(NC[C@@H]5CCCO5)n4)c3)o1)C(C)(C)CCC2(C)C [Compound 136] | 6.3 | – | – | – | – | – | – | – | – | –
2 | COc1cccc(OC)c1NC(=O)c1ccc(Cc2cc3c(cc2C)C(C)(C)CCC3(C)C)o1 [Compound 20] | – | > 1000 | 3000 to 5000 | 3000 to 5000 | > 1000 | > 1000 | > 1000 | ~1000 | > 1000 | > 1000
